Measured values published in patent publication US9023852B2, “1, 2, 4-thiadiazol-5-ylpiperazine derivatives useful in the treatment of neurodegenerative diseases” (Remynd NV, priority 2011, dated 2015).

System: M17—3TAU(P301L) cells
Assay: Neuroblastoma tauopathy model: inhibition of TAU-induced cytotoxicity (LDH)
Format: cell-based
Details: Homo sapiens, 168 h; inhibition of TAU-induced toxicity (LDH), 7 days differentiation with retinoic acid
From the text: A TAU expression plasmid was constructed by sub-cloning the cDNA encoding for human TAU-P301L protein, wherein proline at position 301 is substituted by a leucine residue, into mammalian expression vector pcDNA3.1 resulting in the plasmid pcDNA3.1-TAUP301L. Plasmids pcDNA3.1 and pcDNA3.1-TAU P301L were transfected into human neuroblastoma cells (BE-M17; ATCC No. CRL-2267™) using lipofectamine reagent and subsequently, independent clonal cell lines with the plasmids stably integrated into the genome were selected by antibiotic resistance selection (Geneticin (G418)), resulting in cell lines M17.pcDNA3 and M17—3TAUP301L. Expression of the TAUP301L gene in the M17—3TAUP301L cells was confirmed by Western blot analysis.
Differentiation of the cells with RA leads to phosphorylation and subsequent aggregation of TAU, inducing a tauopathy in these cells. Cytotoxicity of cells was measured by quantification of lactate dehydrogenase (LDH) levels. In dead cells LDH is leaked out of the cells into the medium due to a loss of plasma-membrane integrity.
Briefly, 3 days preceding the experiment pre-cultures of M17.pcDNA3 and M17—3TAU(P301L) cells were prepared, starting from a stock culture, at a density of 50.000-100.000 cells/cm2 in detection medium (Optimem Reduced Serum without phenol red (Gibco, Cat. 31985-047) supplemented with 1% fetal calf serum (FCS), 1 mM sodium pyruvate, 1× non-essential amino acids (NEAA), 500 μg/ml G418 and 0.5× antibiotic/antimycotic (ABAM)). At the day of the experiment these precultures were diluted to ˜0, 1.106 cells/ml in detection medium without FCS and 60 μL of this suspension is dispensed per well into a 96-well microtiter plate. After 3 hours of incubation at 37° C./5% CO2 an equal volume of detection medium containing 2.5 μM RA was added and subsequently incubated for 7 days at 37° C./5% CO2. After 7 days, LDH activity was determined using the Promega Cytotox 96 Non-Radioactive cytotoxicity assay (Cat. G1780), according the manufacturer's instructions. Cytotoxicity is measured as the ratio of LDH increase in the supernatant divided by the LDH increase in the total cell suspension (sum of the LDH measured in cells and supernatant).
The M17—3TAU(P301L) cell line makes it possible to assess the ability of novel compounds to inhibit TAU-induced cytotoxicity. […] Compounds were tested for their ability to hamper TAU-induced toxicity at different concentrations, ranging from low non-effective concentrations to high potent concentrations. Afterwards, the dose-dependent inhibition curve was used to calculate their EC50 (Table 1).

In order of falling EC50:
1. Cc1ccc(-c2nsc(N3CCN(CCCc4ccccc4)CC3)n2)cc1 [Example 155, 5-(4-(3-phenylpropyl)piperazin-1-yl)-3-(p-tolyl)-1,2,4-thiadiazole]  976 nM
2. FC(F)(F)c1ccc(CCN2CCN(c3nc(-c4ccc(Cl)cc4)ns3)CC2)cc1 [Example 144, 1-[3-(4-Chloro-phenyl)-[1,2,4]thiadiazol-5-yl]-4-[2-(4-trifluoromethyl-phenyl)-ethyl]-piperazine]  602 nM
3. Clc1ccc(CCN2CCN(c3nc(-c4ccc(Cl)cn4)ns3)CC2)cc1 [Example 124, 1-[2-(4-Chloro-phenyl)-ethyl]-4-[3-(5-chloro-pyridin-2-yl)-[1,2,4]thiadiazol-5-yl]-piperazine]  458 nM
4. Cc1ccc(-c2nsc(N3CCN(CCc4ccc(Cl)c(Cl)c4)CC3)n2)cc1 [Example 5, 1-[2-(3,4-Dichloro-phenyl)-ethyl]-4-(3-p-tolyl-[1,2,4]thiadiazol-5-yl)-piperazine]  396 nM
5. FC(F)Oc1ccc(CCN2CCN(c3nc(-c4ccc(Cl)cc4)ns3)CC2)cc1 [Example 70, 1-[3-(4-Chloro-phenyl)-[1,2,4]thiadiazol-5-yl]-4-[2-(4-difluoromethoxy-phenyl)-ethyl]-piperazine]  194 nM
6. COc1cc(CCN2CCN(c3nc(-c4cnc(C)nc4)ns3)CC2)ccn1 [Example 183, 5-(4-(2-(2-methoxypyridin-4-yl)ethyl)piperazin-1-yl)-3-(2-methylpyrimidin-5-yl)-1,2,4-thiadiazole]  152 nM
7. CC(C)Oc1cccc(CCN2CCN(c3nc(-c4ccc(Cl)cc4)ns3)CC2)c1 [Example 51, 1-[3-(4-Chloro-phenyl)-[1,2,4]thiadiazol-5-yl]-4-[2-(3-isopropoxy-phenyl)-ethyl]-piperazine]  152 nM
8. Cc1ncc(-c2nsc(N3CCN(CCc4ccc(Cl)cc4)CC3)n2)cn1 [Example 180, 5-(4-(4-chlorophenethyl)piperazin-1-yl)-3-(2-methylpyrimidin-5-yl)-1,2,4-thiadiazole]  129 nM
9. Clc1ccc(CCN2CCN(c3nc(-c4cc(Cl)ccn4)ns3)CC2)cc1 [Example 123, 1-[2-(4-Chloro-phenyl)-ethyl]-4-[3-(4-chloro-pyridin-2-yl)-[1,2,4]thiadiazol-5-yl]-piperazine]  94.6 nM
10. O=C(CN1CCN(c2nc(-c3ccc(Cl)cc3)ns2)CC1)c1cccc(F)c1 [Example 62, 2-{4-[3-(4-Chloro-phenyl)-[1,2,4]thiadiazol-5-yl]-piperazin-1-yl}-1-(3-fluoro-phenyl)-ethanone]  68.7 nM
11. N#Cc1ccc(-c2nsc(N3CCN(CCc4ccc(Cl)cc4)CC3)n2)cc1 [Example 112, 4-(5-{4-[2-(4-Chloro-phenyl)-ethyl]piperazin-1-yl}-[1,2,4]thiadiazol-3-yl)-benzonitrile]  56.7 nM
12. COc1cc(CCN2CCN(c3nc(-c4ccc(C)nc4)ns3)CC2)ccn1 [Example 97, 1-[2-(2-Methoxy-pyridin-4-yl)-ethyl]-4-[3-(6-methyl-pyridin-3-yl)-[1,2,4]thiadiazol-5-yl]-piperazine]  51.3 nM
13. COc1ccccc1CCCN1CCN(c2nc(-c3ccc(Cl)cc3)ns2)CC1 [Example 39, 1-[3-(4-Chloro-phenyl)-[1,2,4]thiadiazol-5-yl]-4-[3-(2-methoxy-phenyl)-propyl]-piperazine]  43.5 nM
14. COc1cccc(C(=O)CN2CCN(c3nc(-c4ccc(Cl)cc4)ns3)CC2)c1 [Example 60, 2-{4-[3-(4-Chloro-phenyl)-[1,2,4]thiadiazol-5-yl]-piperazin-1-yl}-1-(3-methoxy-phenyl)-ethanone]  41.2 nM
15. Clc1ccc(-c2nsc(N3CCN(CCc4ccccc4)CC3)n2)nc1 [Example 121, 1-[3-(5-Chloro-pyridin-2-yl)-[1,2,4]thiadiazol-5-yl]-4-phenethyl-piperazine]  34.6 nM
16. COc1ccc(CCN2CCN(c3nc(-c4ccc(OC)cc4)ns3)CC2)cc1 [Example 40, 1-[2-(4-Methoxy-phenyl)-ethyl]-4-[3-(4-methoxy-phenyl)-[1,2,4]thiadiazol-5-yl]-piperazine]  14.1 nM
17. COc1cc(CCN2CCN(c3nc(-c4ccc(Cl)cc4)ns3)CC2)ccn1 [Example 75, 1-[3-(4-Chloro-phenyl)-[1,2,4]thiadiazol-5-yl]-4-[2-(2-methoxy-pyridin-4-yl)-ethyl]-piperazine]  13.4 nM
18. Clc1ccc(CCN2CCN(c3nc(-c4cccc(Cl)c4)ns3)CC2)cc1 [Example 87, 1-[2-(4-Chloro-phenyl)-ethyl]-4-[3-(3-chloro-phenyl)-[1,2,4]thiadiazol-5-yl]-piperazine]  13.1 nM
19. Clc1ccc(CCN2CCN(c3nc(-c4ccc(Cl)cc4)ns3)CC2)cc1 [Example 25, 1-[2-(4-Chloro-phenyl)-ethyl]-4-[3-(4-chloro-phenyl)-[1,2,4]thiadiazol-5-yl]-piperazine]  7.7 nM
20. OC(CN1CCN(c2nc(-c3ccc(Cl)cc3)ns2)CC1)c1cccc(F)c1 (stereo not drawn) [Example 63, 2-{4-[3-(4-Chloro-phenyl)-[1,2,4]thiadiazol-5-yl]-piperazin-1-yl}-1-(3-fluoro-phenyl)-ethanol]  7.4 nM
21. COc1ccc(CCN2CCN(c3nc(-c4ccc(Cl)cn4)ns3)CC2)cc1 [Example 126, 1-[3-(5-Chloro-pyridin-2-yl)-[1,2,4]thiadiazol-5-yl]-4-[2-(4-methoxy-phenyl)-ethyl]-piperazine]  7 nM
22. COc1cc(CCN2CCN(c3nc(-c4cccc(F)c4)ns3)CC2)ccn1 [Example 90, 1-[3-(3-Fluoro-phenyl)-[1,2,4]thiadiazol-5-yl]-4-[2-(2-methoxy-pyridin-4-yl)-ethyl]-piperazine]  6.8 nM
23. N#Cc1cccc(-c2nsc(N3CCN(CCc4ccc(F)c(F)c4)CC3)n2)c1 [Example 137, 3-(5-{4-[2-(3,4-Difluoro-phenyl)-ethyl]-piperazin-1-yl}-[1,2,4]thiadiazol-3-yl)-benzonitrile]  6.2 nM
24. COc1cccc(CCN2CCN(c3nc(-c4ccc(Cl)cc4)ns3)CC2)c1 [Example 14, 1-[3-(4-Chloro-phenyl)-[1,2,4]thiadiazol-5-yl]-4-[2-(3-methoxy-phenyl)-ethyl]-piperazine]  4.8 nM
25. Clc1ccc(-c2nsc(N3CCN(CCc4cccc(Cl)c4)CC3)n2)cc1 [Example 22, 1-[2-(3-Chloro-phenyl)-ethyl]-4-[3-(4-chloro-phenyl)-[1,2,4]thiadiazol-5-yl]-piperazine]  4.2 nM
26. COc1ccc(CCN2CCN(c3nc(-c4cnc(C)nc4)ns3)CC2)cc1 [Example 179, 5-(4-(4-methoxyphenethyl)piperazin-1-yl)-3-(2-methylpyrimidin-5-yl)-1,2,4-thiadiazole]  3.4 nM
27. COc1ccc(CCN2CCN(c3nc(-c4ccc(Cl)cc4)ns3)CC2)cn1 [Example 79, 1-[3-(4-Chloro-phenyl)-[1,2,4]thiadiazol-5-yl]-4-[2-(6-methoxy-pyridin-3-yl)-ethyl]-piperazine]  2.8 nM
28. COc1ccc(CCN2CCN(c3nc(-c4ccc(F)c(F)c4)ns3)CC2)cn1 [Example 105, 1-[3-(3,4-Difluoro-phenyl)-[1,2,4]thiadiazol-5-yl]-4-[2-(6-methoxy-pyridin-3-yl)-ethyl]-piperazine]  2.1 nM
29. COc1cc(CCN2CCN(c3nc(-c4cncc(Cl)c4)ns3)CC2)ccn1 [Example 133, 1-[3-(5-Chloro-pyridin-3-yl)-[1,2,4]thiadiazol-5-yl]-4-[2-(2-methoxy-pyridin-4-yl)-ethyl]-piperazine]  1.4 nM
30. Clc1cccc(-c2nsc(N3CCN(CCC4CCOCC4)CC3)n2)c1 [Example 165, 3-(3-chlorophenyl)-5-(4-(2-(tetrahydro-2H-pyran-4-yl)ethyl)piperazin-1-yl)-1,2,4-thiadiazole]  1.1 nM
31. Clc1cc(-c2nsc(N3CCN(CCc4ccccc4)CC3)n2)ccn1 [Example 170, 3-(2-chloropyridin-4-yl)-5-(4-phenethylpiperazin-1-yl)-1,2,4-thiadiazole]  0.7 nM
32. COc1cccc(CCN2CCN(c3nc(-c4cccc(Cl)c4)ns3)CC2)c1 [Example 48, 1-[3-(3-Chloro-phenyl)-[1,2,4]thiadiazol-5-yl]-4-[2-(3-methoxy-phenyl)-ethyl]-piperazine]  0.6 nM
33. Fc1ccc(CCN2CCN(c3nc(-c4cncc(Cl)c4)ns3)CC2)cc1F [Example 160, 3-(5-chloropyridin-3-yl)-5-(4-(3,4-difluorophenethyl)piperazin-1-yl)-1,2,4-thiadiazole]  0.4 nM
